Consider 19 compounds from patent US10829473B2, “Modulators of the cystic fibrosis transmembrane conductance regulator protein and methods of use” (AbbVie Overseas S.Á.R.L., priority 2017, dated 2020).

Read-outs that look alike come from different tables or passages of the source.

The target in this experiment is T1, F508delCFTR (Homo sapiens, UniProt P13569, DEL508-508).
T1 construct: expressed in transfected cells; host or cells: CFBE41o- human lung derived epithelial cells (CFBE41o-F508delCFTR-HRP), doxycycline-inducible
T1 sequence (P13569 with tags, fused parts or gaps DEL508-508): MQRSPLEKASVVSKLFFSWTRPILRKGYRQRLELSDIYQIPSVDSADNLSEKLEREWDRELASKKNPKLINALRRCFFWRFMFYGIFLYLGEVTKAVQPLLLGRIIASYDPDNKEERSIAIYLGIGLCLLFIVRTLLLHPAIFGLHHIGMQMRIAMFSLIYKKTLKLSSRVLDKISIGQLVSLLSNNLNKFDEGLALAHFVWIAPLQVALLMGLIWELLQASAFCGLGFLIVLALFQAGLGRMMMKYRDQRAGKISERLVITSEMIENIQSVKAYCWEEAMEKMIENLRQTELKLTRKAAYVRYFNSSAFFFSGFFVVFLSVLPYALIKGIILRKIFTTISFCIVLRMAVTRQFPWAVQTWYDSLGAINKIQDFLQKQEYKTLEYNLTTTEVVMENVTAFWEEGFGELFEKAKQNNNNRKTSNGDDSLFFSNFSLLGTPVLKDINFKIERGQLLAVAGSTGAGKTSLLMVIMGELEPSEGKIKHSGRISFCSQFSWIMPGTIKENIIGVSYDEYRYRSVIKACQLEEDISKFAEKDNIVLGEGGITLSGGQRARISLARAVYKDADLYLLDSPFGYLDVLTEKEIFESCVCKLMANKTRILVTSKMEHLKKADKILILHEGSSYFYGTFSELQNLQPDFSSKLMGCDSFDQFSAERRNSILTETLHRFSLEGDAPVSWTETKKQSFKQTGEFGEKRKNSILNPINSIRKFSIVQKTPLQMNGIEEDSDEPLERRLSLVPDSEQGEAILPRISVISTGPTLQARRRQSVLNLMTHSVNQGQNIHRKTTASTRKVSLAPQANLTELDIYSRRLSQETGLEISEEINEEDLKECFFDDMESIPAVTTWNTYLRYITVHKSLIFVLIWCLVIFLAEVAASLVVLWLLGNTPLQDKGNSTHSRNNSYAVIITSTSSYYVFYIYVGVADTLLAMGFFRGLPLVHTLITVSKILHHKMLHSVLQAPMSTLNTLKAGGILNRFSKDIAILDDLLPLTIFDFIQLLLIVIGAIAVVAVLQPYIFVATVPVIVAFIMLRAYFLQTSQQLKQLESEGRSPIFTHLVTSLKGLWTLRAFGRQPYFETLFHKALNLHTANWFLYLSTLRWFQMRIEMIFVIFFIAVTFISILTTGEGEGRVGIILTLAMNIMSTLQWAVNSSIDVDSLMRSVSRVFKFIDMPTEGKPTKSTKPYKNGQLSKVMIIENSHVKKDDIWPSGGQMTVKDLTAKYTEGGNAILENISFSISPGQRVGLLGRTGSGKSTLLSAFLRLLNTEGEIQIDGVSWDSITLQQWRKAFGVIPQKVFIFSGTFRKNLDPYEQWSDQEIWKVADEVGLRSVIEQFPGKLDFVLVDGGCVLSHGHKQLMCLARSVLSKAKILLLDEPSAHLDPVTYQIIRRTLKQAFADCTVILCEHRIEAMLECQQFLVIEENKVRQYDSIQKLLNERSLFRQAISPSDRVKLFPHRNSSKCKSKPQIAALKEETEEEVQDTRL
As to the kind of experiment: Cell Surface Expression-Horse Radish Peroxidase (CSE-HRP) Assay.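 For EC50 (with co-corrector): co-corrector chromenyl benzoic acid corrector at 2 or 3 µM.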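 For Maximum % activity (without co-corrector): % of on-plate positive control chromenyl benzoic acid corrector at 2 or 3 µM.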 As to conditions: for Maximum % activity (with co-corrector) / Emax: maximum at any tested concentration; for Emax: read-out: Maximum % activity (without co-corrector). Type of experiment: cell-based. The gist of the method: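 Corrector compounds were given as 8-point 3-fold series from 20 or 30 μM, with or without a 2 μM co-corrector, for 18-24 h at 33 °C. Surface HRP was read by luminol luminescence as % of positive control; variable-Hill-slope sigmoidal fitting gave EC50 from triplicate plates.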

[1] abbreviates: test compound alone, without co-corrector, read-out: EC50 (without co-corrector).
Where [2] appears, read: with co-corrector, read-out: EC50 (with co-corrector).

With `O=C(NS(=O)(=O)C1CC1)C1(c2ccc(Cl)cc2Cl)CC1` [Example III-28, N-(cyclopropanesulfonyl)-1-(2,4-dichlorophenyl)cyclopropane-1-carboxamide], the 50% effective concentration (EC50) is, setting by setting: under setting [1], greater than 10 µM; under setting [2], 3 to 10 µM. The “Maximum % activity (with co-corrector)” value (with co-corrector) is given as “+ (<150)”. In addition, the Emax (without co-corrector) was less than 50%.

`Cc1ccc(C2(C(=O)NS(=O)(=O)c3ccccc3)CC2)cc1` [Example III-29, N-(benzenesulfonyl)-1-(4-methylphenyl)cyclopropane-1-carboxamide]: the concentration giving a half-maximal response (EC50) is 3 to 10 µM under setting [1] and 3 to 10 µM under setting [2]. In addition, the “Maximum % activity (with co-corrector)” value (with co-corrector) is “++ (≥150 and <350)”. Further, the Emax (without co-corrector) is less than 50%.

Regarding `O=C(NS(=O)(=O)c1ccccc1)C1(c2ccccc2F)CC1` [Example III-30, N-(benzenesulfonyl)-1-(2-fluorophenyl)cyclopropane-1-carboxamide], the EC50 is, setting by setting: under setting [1], greater than 10 µM; under setting [2], 3 to 10 µM. The “Maximum % activity (with co-corrector)” value (with co-corrector) is “++ (≥150 and <350)”. Further, the Emax (without co-corrector) was less than 50%.

With `O=C(NS(=O)(=O)c1ccccc1)C1(c2ccc(F)cc2)CC1` [Example III-31, N-(benzenesulfonyl)-1-(4-fluorophenyl)cyclopropane-1-carboxamide], the EC50 is greater than 10 µM under setting [1] and 3 to 10 µM under setting [2]. For the same compound, the “Maximum % activity (with co-corrector)” value (with co-corrector) is “++ (≥150 and <350)”. For the same compound, the Emax (without co-corrector) was less than 50%.

In the case of `O=C(NS(=O)(=O)c1ccccc1)C1(c2ccccc2Cl)CC1` [Example III-32, N-(benzenesulfonyl)-1-(2-chlorophenyl)cyclopropane-1-carboxamide], the EC50 was 3 to 10 µM under setting [1] and 3 to 10 µM under setting [2]. Besides, the “Maximum % activity (with co-corrector)” value (with co-corrector) was “++ (≥150 and <350)”. For the same compound, the Emax (without co-corrector) was less than 50%.

`O=C(NS(=O)(=O)c1ccccc1)C1(c2ccc(Cl)cc2)CC1` [Example III-33, N-(benzenesulfonyl)-1-(4-chlorophenyl)cyclopropane-1-carboxamide]: the EC50 was in the range of 3 to 10 µM under setting [1] and 3 to 10 µM under setting [2]. Under “with co-corrector”, the “Maximum % activity (with co-corrector)” value was “++ (≥150 and <350)”. For the setting “without co-corrector”, the Emax was less than 50%.

As to `O=C(NS(=O)(=O)c1ccccc1)C1(c2ccc(Cl)c(Cl)c2)CC1` [Example III-34, N-(benzenesulfonyl)-1-(3,4-dichlorophenyl)cyclopropane-1-carboxamide], the EC50 runs as follows: under setting [1], greater than 10 µM; under setting [2], greater than 10 µM. Besides, under “with co-corrector”, the “Maximum % activity (with co-corrector)” value was “++ (≥150 and <350)”. Moreover, the Emax (without co-corrector) was less than 50%.

In the case of `O=C(NS(=O)(=O)Cc1ccccc1)C1(c2ccccc2F)CC1` [Example III-35, 1-(2-fluorophenyl)-N-(phenylmethanesulfonyl)cyclopropane-1-carboxamide], the EC50 reads like this: under setting [1], greater than 10 µM; under setting [2], greater than 10 µM. In addition, the “Maximum % activity (with co-corrector)” value (with co-corrector) is “++ (≥150 and <350)”. Moreover, the Emax (without co-corrector) is less than 50%.

In the case of `O=C(NS(=O)(=O)C1CCS(=O)(=O)C1)C1(c2ccc(Cl)cc2Cl)CC1` (stereo not shown) [Example III-36, 1-(2,4-dichlorophenyl)-N-(1,1-dioxo-1λ^6-thiolane-3-sulfonyl)cyclopropane-1-carboxamide], the EC50 under setting [1] is greater than 10 µM and the EC50 under setting [2] is greater than 10 µM. Besides, the “Maximum % activity (with co-corrector)” value (with co-corrector) was “+ (<150)”. For the same compound, the Emax (without co-corrector) was less than 50%.

For `Cc1ccc(S(=O)(=O)NC(=O)C2(c3ccc(Cl)cc3Cl)CC2)cc1` [Example III-37, 1-(2,4-dichlorophenyl)-N-(4-methylbenzene-1-sulfonyl)cyclopropane-1-carboxamide], the EC50 is greater than 10 µM under setting [1] and 3 to 10 µM under setting [2]. The “Maximum % activity (with co-corrector)” value (with co-corrector) was “++ (≥150 and <350)”. For the same compound, under “without co-corrector”, the Emax is less than 50%.

As to `O=C(NS(=O)(=O)c1cc([N+](=O)[O-])ccc1Cl)C1(c2cccc(Cl)c2)CC1` [Example III-55, N-(2-chloro-5-nitrobenzene-1-sulfonyl)-1-(3-chlorophenyl)cyclopropane-1-carboxamide], the EC50 was greater than 10 µM under setting [1] and greater than 10 µM under setting [2]. In addition, the “Maximum % activity (with co-corrector)” value (with co-corrector) is reported as “+ (<150)”. The Emax (without co-corrector) was less than 50%.

`CCOc1ccc2nc(S(=O)(=O)NC(=O)C3(c4cccc(Cl)c4)CC3)sc2c1` [Example III-56, 1-(3-chlorophenyl)-N-(6-ethoxy-1,3-benzothiazole-2-sulfonyl)cyclopropane-1-carboxamide]: the EC50 under setting [1] was greater than 10 µM and the EC50 under setting [2] is greater than 10 µM. In addition, where the note is “with co-corrector”, the “Maximum % activity (with co-corrector)” value is listed as “+ (<150)”. Moreover, the Emax (without co-corrector) was less than 50%.

With `O=C(NS(=O)(=O)c1cccc2c(O)cccc12)C1(c2cccc(Cl)c2)CC1` [Example III-57, 1-(3-chlorophenyl)-N-(5-hydroxynaphthalene-1-sulfonyl)cyclopropane-1-carboxamide], the EC50 by setting is: under setting [1], greater than 10 µM; under setting [2], greater than 10 µM. The “Maximum % activity (with co-corrector)” value (with co-corrector) was “+ (<150)”. For the same compound, the Emax (without co-corrector) is less than 50%.

Regarding `CN(C)c1cccc2c(S(=O)(=O)NC(=O)C3(c4cccc(Cl)c4)CC3)cccc12` [Example III-58, 1-(3-chlorophenyl)-N-[5-(dimethylamino)naphthalene-1-sulfonyl]cyclopropane-1-carboxamide], the EC50 under setting [1] is greater than 10 µM and the EC50 under setting [2] is 3 to 10 µM. Besides, the “Maximum % activity (with co-corrector)” value (with co-corrector) is “++ (≥150 and <350)”. For the same compound, for the setting “without co-corrector”, the Emax is less than 50%.

As to `O=C(NS(=O)(=O)c1cccnc1)C1(c2ccc(Cl)cc2Cl)CC1` [Example III-59, 1-(2,4-dichlorophenyl)-N-(pyridine-3-sulfonyl)cyclopropane-1-carboxamide], the EC50 is greater than 10 µM under setting [1] and 3 to 10 µM under setting [2]. Under “with co-corrector”, the “Maximum % activity (with co-corrector)” value is “+ (<150)”. For the same compound, the Emax (without co-corrector) was less than 50%.

Take `CC1(C)CC1(C(=O)NS(=O)(=O)c1ccccc1)c1ccccc1` (stereo not shown) [Example III-61, N-(benzenesulfonyl)-2,2-dimethyl-1-phenylcyclopropane-1-carboxamide]: the EC50 under setting [1] was greater than 10 µM and the EC50 under setting [2] was in the range of 3 to 10 µM. Also, where the note is “with co-corrector”, the “Maximum % activity (with co-corrector)” value is “++ (≥150 and <350)”. Moreover, the Emax (without co-corrector) is less than 50%.

For `COC(=O)c1ccc(S(=O)(=O)NC(=O)C2(c3ccc(Cl)cc3Cl)CC2)o1` [Example III-62, methyl 5-{[1-(2,4-dichlorophenyl)cyclopropane-1-carbonyl]ulfamoyl}furan-2-carboxylate], the half-maximal effective concentration (EC50) runs as follows: under setting [1], greater than 10 µM; under setting [2], greater than 10 µM. The “Maximum % activity (with co-corrector)” value (with co-corrector) is “+ (<150)”. Further, under “without co-corrector”, the Emax was less than 50%.

As for `O=C(NS(=O)(=O)c1ccc(Br)s1)C1(c2ccc(Cl)cc2Cl)CC1` [Example III-63, N-(5-bromothiophene-2-sulfonyl)-1-(2,4-dichlorophenyl)cyclopropane-1-carboxamide], the EC50 is, setting by setting: under setting [1], greater than 10 µM; under setting [2], 3 to 10 µM. The “Maximum % activity (with co-corrector)” value (with co-corrector) was “++ (≥150 and <350)”. Further, the Emax (without co-corrector) is less than 50%.

In the case of `O=C(NS(=O)(=O)c1cccc(OC(F)(F)F)c1)C1(c2ccc(Cl)cc2Cl)CC1` [Example III-64, 1-(2,4-dichlorophenyl)-N-[3-(trifluoromethoxy)benzene-1-sulfonyl]cyclopropane-1-carboxamide], the EC50 under setting [1] is greater than 10 µM and the EC50 under setting [2] was greater than 10 µM. Further, where the note is “with co-corrector”, the “Maximum % activity (with co-corrector)” value is given as “+ (<150)”. Moreover, the Emax (without co-corrector) is less than 50%.

Usually EC50 stands for the concentration needed to bring the measured effect to its halfway point.
